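Where inhibition never reached the appropriate level, the endpoint shown equals the highest concentration tested. Otherwise, values were interpolated linearly from a five-concentration, 48-hour dose response in 96-well plates. Here, GI50 denotes the concentration required for 50% inhibition of growth. TGI is the concentration that stops growth completely.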
Columns and labels:
Test in all cases: NCI tumour cell line growth inhibition, 48 h
SNB-75 CNS = system: SNB-75 CNS
UACC-257 melanoma = system: UACC-257 melanoma
MDA-MB-435 = system: MDA-MB-435
HCT-15 colon = system: HCT-15 colon
COLO 205 colon = system: COLO 205 colon
OVCAR-4 ovarian = system: OVCAR-4 ovarian
DU-145 prostate = system: DU-145 prostate
SW-620 colon = system: SW-620 colon
UO-31 renal = system: UO-31 renal
NCI-H522 lung = system: NCI-H522 lung
OVCAR-5 ovarian = system: OVCAR-5 ovarian
SR leukemia = system: SR leukemia
T-47D breast = system: T-47D breast
SF-295 CNS = system: SF-295 CNS
SF-268 CNS = system: SF-268 CNS
HOP-92 NSCLC = system: HOP-92 NSCLC
TK-10 renal = system: TK-10 renal
SNB-19 CNS = system: SNB-19 CNS
IGROV1 ovarian = system: IGROV1 ovarian
HT29 colon = system: HT29 colon
K-562 leukemia = system: K-562 leukemia
SF-539 CNS = system: SF-539 CNS
RXF 393 renal = system: RXF 393 renal
CAKI-1 renal = system: CAKI-1 renal
RPMI-8226 leukemia = system: RPMI-8226 leukemia
NCI/ADR-RES ovarian = system: NCI/ADR-RES ovarian
OVCAR-3 ovarian = system: OVCAR-3 ovarian
SN12C renal = system: SN12C renal
HCT-116 colon = system: HCT-116 colon
SK-MEL-28 melanoma = system: SK-MEL-28 melanoma
OVCAR-8 ovarian = system: OVCAR-8 ovarian
HL-60(TB) leukemia = system: HL-60(TB) leukemia
786-0 renal = system: 786-0 renal
HOP-62 NSCLC = system: HOP-62 NSCLC
MALME-3M melanoma = system: MALME-3M melanoma
HCC-2998 colon = system: HCC-2998 colon
SK-MEL-2 melanoma = system: SK-MEL-2 melanoma
KM12 colon = system: KM12 colon
A498 renal = system: A498 renal
MCF7 breast = system: MCF7 breast
MOLT-4 leukemia = system: MOLT-4 leukemia
UACC-62 melanoma = system: UACC-62 melanoma
SK-OV-3 ovarian = system: SK-OV-3 ovarian
HS 578T breast = system: HS 578T breast
PC-3 prostate = system: PC-3 prostate
ACHN renal = system: ACHN renal
NCI-H226 lung = system: NCI-H226 lung
EKVX NSCLC = system: EKVX NSCLC
CCRF-CEM leukemia = system: CCRF-CEM leukemia
LOX IMVI melanoma = system: LOX IMVI melanoma
NCI-H460 lung = system: NCI-H460 lung
MDA-MB-468 breast = system: MDA-MB-468 breast
MDA-MB-231 breast = system: MDA-MB-231 breast
BT-549 breast = system: BT-549 breast
NCI-H23 lung = system: NCI-H23 lung
M14 melanoma = system: M14 melanoma

COc1cc2cc(C(=O)N3C[C@@H](CCl)c4c3cc(OC(=O)N(C)CCSSCCN3CCOCC3)c3ccccc43)[nH]c2c(OC)c1OC
GI50 (SNB-75 CNS): 348 nM
TGI (SNB-75 CNS): 921 nM
GI50 (UACC-257 melanoma): 642 nM
TGI (UACC-257 melanoma): 4320 nM
GI50 (MDA-MB-435): 141 nM
TGI (MDA-MB-435): 361 nM
GI50 (HCT-15 colon): 335 nM
TGI (HCT-15 colon): 2990 nM
GI50 (COLO 205 colon): 1150 nM
TGI (COLO 205 colon): 2680 nM
GI50 (OVCAR-4 ovarian): 621 nM
TGI (OVCAR-4 ovarian): 1830 nM
GI50 (DU-145 prostate): 34.1 nM
TGI (DU-145 prostate): > 25000 nM
GI50 (SW-620 colon): 865 nM
TGI (SW-620 colon): > 25000 nM
GI50 (UO-31 renal): 69.2 nM
TGI (UO-31 renal): 452 nM
GI50 (NCI-H522 lung): 1330 nM
TGI (NCI-H522 lung): 7370 nM
GI50 (OVCAR-5 ovarian): 228 nM
TGI (OVCAR-5 ovarian): 1060 nM
GI50 (SR leukemia): 19.7 nM
TGI (SR leukemia): > 25000 nM
GI50 (T-47D breast): 1010 nM
TGI (T-47D breast): 5720 nM
GI50 (SF-295 CNS): 87.2 nM
TGI (SF-295 CNS): 1470 nM
GI50 (SF-268 CNS): 45.4 nM
TGI (SF-268 CNS): > 25000 nM
GI50 (HOP-92 NSCLC): 1130 nM
TGI (HOP-92 NSCLC): > 18600 nM
GI50 (TK-10 renal): 819 nM
TGI (TK-10 renal): 3120 nM
GI50 (SNB-19 CNS): 95 nM
TGI (SNB-19 CNS): 2550 nM
GI50 (IGROV1 ovarian): 358 nM
TGI (IGROV1 ovarian): 1460 nM
GI50 (HT29 colon): 496 nM
TGI (HT29 colon): > 8760 nM
GI50 (K-562 leukemia): 608 nM
TGI (K-562 leukemia): > 25000 nM
GI50 (SF-539 CNS): 25.7 nM
TGI (SF-539 CNS): 116 nM
GI50 (RXF 393 renal): 28 nM
TGI (RXF 393 renal): 95.1 nM
GI50 (CAKI-1 renal): 137 nM
TGI (CAKI-1 renal): 5730 nM
GI50 (RPMI-8226 leukemia): 1000 nM
TGI (RPMI-8226 leukemia): > 25000 nM
GI50 (NCI/ADR-RES ovarian): 362 nM
TGI (NCI/ADR-RES ovarian): 1290 nM
GI50 (OVCAR-3 ovarian): 575 nM
TGI (OVCAR-3 ovarian): 1630 nM
GI50 (SN12C renal): 69 nM
TGI (SN12C renal): 1920 nM
GI50 (HCT-116 colon): 612 nM
TGI (HCT-116 colon): > 25000 nM
GI50 (SK-MEL-28 melanoma): 128 nM
TGI (SK-MEL-28 melanoma): 293 nM
GI50 (OVCAR-8 ovarian): 125 nM
TGI (OVCAR-8 ovarian): 1520 nM
GI50 (HL-60(TB) leukemia): 251 nM
TGI (HL-60(TB) leukemia): 4950 nM
GI50 (786-0 renal): 196 nM
TGI (786-0 renal): 1050 nM
GI50 (HOP-62 NSCLC): 29.4 nM
TGI (HOP-62 NSCLC): 511 nM
GI50 (MALME-3M melanoma): 229 nM
TGI (MALME-3M melanoma): 673 nM
GI50 (HCC-2998 colon): 154 nM
TGI (HCC-2998 colon): 575 nM
GI50 (SK-MEL-2 melanoma): 210 nM
TGI (SK-MEL-2 melanoma): 463 nM
GI50 (KM12 colon): 286 nM
TGI (KM12 colon): > 8850 nM
GI50 (A498 renal): 272 nM
TGI (A498 renal): 1330 nM
GI50 (MCF7 breast): 45.7 nM
TGI (MCF7 breast): 2240 nM
GI50 (MOLT-4 leukemia): 51.9 nM
TGI (MOLT-4 leukemia): > 25000 nM
GI50 (UACC-62 melanoma): 130 nM
TGI (UACC-62 melanoma): 482 nM
GI50 (SK-OV-3 ovarian): 107 nM
TGI (SK-OV-3 ovarian): 925 nM
GI50 (HS 578T breast): 627 nM
TGI (HS 578T breast): 1970 nM
GI50 (PC-3 prostate): 214 nM
TGI (PC-3 prostate): > 25000 nM
GI50 (ACHN renal): 19.3 nM
TGI (ACHN renal): 554 nM
GI50 (NCI-H226 lung): 29.5 nM
TGI (NCI-H226 lung): 122 nM
GI50 (EKVX NSCLC): 178 nM
TGI (EKVX NSCLC): 844 nM
GI50 (CCRF-CEM leukemia): 281 nM
TGI (CCRF-CEM leukemia): > 25000 nM
GI50 (LOX IMVI melanoma): 41.7 nM
TGI (LOX IMVI melanoma): 334 nM
GI50 (NCI-H460 lung): 26.3 nM
TGI (NCI-H460 lung): > 9660 nM
GI50 (MDA-MB-468 breast): 133 nM
TGI (MDA-MB-468 breast): 505 nM
GI50 (MDA-MB-231 breast): 270 nM
TGI (MDA-MB-231 breast): 1180 nM
GI50 (BT-549 breast): 66.5 nM
TGI (BT-549 breast): 330 nM
GI50 (NCI-H23 lung): 33.3 nM
TGI (NCI-H23 lung): 164 nM
GI50 (M14 melanoma): 69.9 nM
TGI (M14 melanoma): 318 nM

Reference: PubChem BioAssay (NCI)
